PubChem BioAssay (NCI)
Several values for one entry are separate records, joined by “and”; a condition that tells them apart may be missing. Equal values may be shown once.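 Briefly, cells in 96-well plates were exposed to five compound concentrations for 48 h, and endpoints were estimated by linear interpolation. TGI: concentration producing complete growth inhibition.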

Experiments:
Test in all cases: growth of human tumour cells (NCI), 48 h
[1] = tested on: HT29 colon
[2] = tested on: HCT-15 colon
[3] = tested on: OVCAR-3 ovarian
[4] = tested on: NCI-H23 lung
[5] = tested on: UACC-257 melanoma
[6] = tested on: PC-3 prostate
[7] = tested on: 786-0 renal
[8] = tested on: T-47D breast
[9] = tested on: MDA-MB-435
[10] = tested on: MDA-N

| SMILES | TGI [1] | TGI [2] | TGI [3] [µM] | TGI [4] | TGI [5] [µM] | TGI [6] | TGI [7] | TGI [8] [µM] | TGI [9] [µM] | TGI [10] |
| --- | --- | --- | --- | --- | --- | --- | --- | --- | --- | --- |
| c1ccc(CCn2cncn2)cc1 | > 100 µM | > 100 µM | > 100 | > 100 µM | > 100 |  |  |  |  |  |
| COc1ccccc1N=C1SCCN1C(=S)Nc1ccc(S(=O)(=O)/N=C/N(C)C)cc1 |  | > 100 µM | > 100 | 95.9 µM | > 100 | > 100 µM | > 100 µM | > 100 | 76.9 | > 100 µM |
| C[N+](C)(N)c1nc(N)c(C#N)c(C#N)c1C#N | > 10 µM | > 10 µM | > 10 | > 10 µM |  | > 10 µM |  | > 10 | > 10 | > 10 µM |
| c1ccc(C2[C@@H]3CCCc4ccccc4C3=NN2c2ccccc2)cc1 (stereo partly drawn) | > 100 µM | > 100 µM | > 100 | > 100 µM | > 100 |  | > 100 µM |  |  |  |
| O=P1(c2ccccc2)C2=CCC=CC2C(c2ccccc2)N1Cc1ccccc1 (stereo not drawn) | 24.2 µM | 28.1 µM |  | 24.8 µM | 34.9 | 27.6 µM | 29.4 µM | 36.8 | 29.8 | 38.2 µM |
| CCC1(O)CC(OC2CC(N(C)C)C(OC3CC(O)C(OC4CCC(=O)C(C)O4)C(C)O3)C(C)O2)c2c(O)c3c(c(O)c2C1C(=O)OC)C(=O)c1cccc(O)c1C3=O (stereo not drawn) | 0.103 µM and 0.0147 µM | 0.0543 µM and 0.09 µM | 10.3 | 0.112 µM and 0.031 µM | 0.0915 | 0.252 µM and 0.132 µM | 0.218 µM and 0.449 µM |  | 0.101 | 0.107 µM and 0.0142 µM |
| COc1ccccc1NCC(=O)Nn1c(C)nc2ccc(S(=O)(=O)Nc3ccccc3OC)cc2c1=O | > 100 µM | > 100 µM | > 100 | > 100 µM | > 100 | > 100 µM | > 100 µM |  | 85.2 | > 100 µM |
| C#CCOC(=O)C(N)CCSC (stereo not drawn) | > 100 µM |  | > 100 | > 100 µM | > 100 | > 100 µM | > 100 µM | > 100 | > 100 | > 100 µM |
| COc1ccccc1NS(=O)(=O)c1ccc2ncn(NS(=O)(=O)c3ccc(Cl)cc3)c(=O)c2c1 | > 100 µM | > 100 µM | > 100 | > 100 µM | > 100 | > 100 µM | > 100 µM |  | > 100 | > 100 µM |
| O=C1C[C@H](c2ccc(O)c(O)c2)Oc2cc(O)cc(O)c21 | > 100 µM | > 100 µM | > 100 | > 100 µM | > 100 |  | > 100 µM |  |  |  |
| CC1(C)C2CCC(N)(C2)C1O (stereo not drawn) |  | > 100 µM | > 100 | > 100 µM | > 100 | > 100 µM | > 100 µM | > 100 | > 100 | > 100 µM |
| O=C(NN=C1CCCCC1)NN=C1CCCCC1 | > 100 µM | > 100 µM | > 100 | > 100 µM | > 100 | > 100 µM |  | > 100 | > 100 | > 100 µM |
| CC(C)N(C(C)C)P(OCCC#N)OC1CC(n2cnc3c(=O)[nH]cnc32)OC1COC(=O)NCCCCCCNC(=O)OC(C)(C)c1ccc(-c2ccccc2)cc1 (stereo not drawn) | > 100 µM | > 100 µM |  | 50.5 µM | 30.3 |  | 54.7 µM |  |  |  |
| COc1cc2c(c(OC)c1OC)-c1ccc(SC)cc1C(=O)CC2 | < 0.01 µM | > 100 µM | > 100 | > 100 µM |  | > 100 µM | > 100 µM | > 100 | > 100 | 27.2 µM |
| O=[N+]([O-])c1cc(Cl)ccc1S(=O)(=O)N1CCCc2cc(Cl)ccc21 | > 100 µM | > 100 µM | > 100 |  | 83.7 | > 100 µM | > 100 µM |  | > 100 | > 100 µM |
| COc1cccc(-c2cc(=O)c3cc(Cl)cnc3[nH]2)c1 | 13.8 µM | 31.9 µM | > 43 | 8.3 µM | > 100 | > 100 µM | 42.2 µM | > 100 |  | 0.0239 µM |
| CN(C)c1ccc(/C=c2/c3cc([N+](=O)[O-])ccc3n3c2cc(-c2ccccc2)[n+]3C)cc1 | 6.76 µM | 42.1 µM | 5.48 | > 24.2 µM |  | 7.27 µM | 10.3 µM | 1.81 | 1.84 | 1.66 µM |
| C/C=C1\CC(C(=O)OCC)CCCCCCCCCCC1=O (stereo not drawn) | > 100 µM | > 100 µM |  | > 100 µM | > 100 | > 100 µM | > 100 µM | > 100 | 38 | > 100 µM |
| CN1B(c2ccccc2)N(C)C(=O)N(C)C1=O | > 100 µM | > 100 µM |  | > 100 µM | > 100 | > 100 µM | > 100 µM | > 100 | > 100 | > 100 µM |
| Brc1cccc[n+]1-c1ccc2cc(-[n+]3ccccc3Br)ccc2c1 | > 100 µM | > 100 µM | 46.4 | > 100 µM | > 100 | > 100 µM | 69 µM | 58.4 | > 100 |  |
| Cc1cccc(NC2=NCCO2)c1Cl | > 100 µM | > 100 µM |  | > 100 µM | > 100 |  | > 100 µM | > 100 | > 100 |  |
| CN(C)CCn1nc(N)c2nc3cc(C(F)(F)F)ccc3nc21 | > 100 µM | > 100 µM |  | > 100 µM | > 100 | > 100 µM | > 100 µM |  | > 100 | > 100 µM |
| COC[C@@H](Cc1ccc(OC)c(OC)c1)[C@@H](COC)Cc1ccc(OC)c(OC)c1 | > 100 µM | > 100 µM | > 100 | > 100 µM | > 100 |  |  |  |  |  |
| Cc1cc(O)c(C(C)C)cc1N=Cc1ccccc1O | > 74 µM | > 59.5 µM | 9.7 | 37.9 µM | 24.4 | 22.4 µM | 26.3 µM |  | 4.37 | 17 µM |
